In experiment [1] the target is Calcium/calmodulin-dependent protein kinase type II subunit delta (Homo sapiens) (UniProt Q13557). The experiment is described as follows: Inhibition of CaMK2d Lys1 labeling site harbouring IPTGQEYAAKIINTKK in human Huh-7 cell lysate at 1 uM by KiNativ Profiling analysis relative to control. It counts as subcellular.
The target in experiment [2] is Epidermal growth factor receptor (Homo sapiens) (UniProt P00533). The experiment in a line: Inhibition of EGFR ACT labeling site in human Huh-7 cell lysate at 1 uM by KiNativ Profiling analysis relative to control. The experiment is classed as subcellular.
Experiment [3] is described as follows: Inhibition of KHS1 Lys2 labeling site harbouring DIKGANILLTDHGDVKLADFGVAAK in human Huh-7 cell lysate at 1 uM by KiNativ Profiling analysis relative to control. The note with it: condition cancer.
For experiment [4], the target named is T1, Dual specificity mitogen-activated protein kinase kinase 3 (Homo sapiens) (UniProt P46734).
T1 sequence (whole entry): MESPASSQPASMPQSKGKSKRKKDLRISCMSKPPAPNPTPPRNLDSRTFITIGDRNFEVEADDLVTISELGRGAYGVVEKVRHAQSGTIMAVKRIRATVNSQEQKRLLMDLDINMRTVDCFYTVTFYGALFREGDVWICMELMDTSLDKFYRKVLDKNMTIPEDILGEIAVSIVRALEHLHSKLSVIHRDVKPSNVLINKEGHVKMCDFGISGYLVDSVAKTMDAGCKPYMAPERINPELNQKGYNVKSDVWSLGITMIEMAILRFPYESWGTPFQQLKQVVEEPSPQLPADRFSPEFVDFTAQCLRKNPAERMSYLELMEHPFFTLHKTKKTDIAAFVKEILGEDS
The experiment in a line: Inhibition of MAP2K3 ACT labeling site in human Huh-7 cell lysate at 1 uM by KiNativ Profiling analysis relative to control. The experiment is classed as subcellular.

The target in experiment [5] is Phosphatidylinositol 4,5-bisphosphate 3-kinase catalytic subunit beta isoform (Homo sapiens) (UniProt P42338). The experiment is described as follows: Inhibition of PIK3CB ATP labeling site harbouring VFGEDSVGVIFKNGDDLR in human Huh-7 cell lysate at 1 uM by KiNativ Profiling analysis relative to control. The experiment is classed as subcellular.
For experiment [6], the target named is Tyrosine-protein kinase ABL1 (Homo sapiens, UniProt P00519). The experiment is described as follows: Inhibition of ABL ACT labeling site in human Huh-7 cells at 1 uM by KiNativ Profiling analysis relative to control. The experiment is classed as cell-based.
For experiment [7], the target named is Cyclin-dependent kinase 11B (Homo sapiens) (UniProt P21127). The experiment in a line: Inhibition of CDK11 Lys2 labeling site in human Huh-7 cells at 1 uM by KiNativ Profiling analysis relative to control. It counts as cell-based.
The target of experiment [8] is T2, Mitogen-activated protein kinase kinase kinase 7 (Homo sapiens) (UniProt O43318).
T2 sequence (whole entry): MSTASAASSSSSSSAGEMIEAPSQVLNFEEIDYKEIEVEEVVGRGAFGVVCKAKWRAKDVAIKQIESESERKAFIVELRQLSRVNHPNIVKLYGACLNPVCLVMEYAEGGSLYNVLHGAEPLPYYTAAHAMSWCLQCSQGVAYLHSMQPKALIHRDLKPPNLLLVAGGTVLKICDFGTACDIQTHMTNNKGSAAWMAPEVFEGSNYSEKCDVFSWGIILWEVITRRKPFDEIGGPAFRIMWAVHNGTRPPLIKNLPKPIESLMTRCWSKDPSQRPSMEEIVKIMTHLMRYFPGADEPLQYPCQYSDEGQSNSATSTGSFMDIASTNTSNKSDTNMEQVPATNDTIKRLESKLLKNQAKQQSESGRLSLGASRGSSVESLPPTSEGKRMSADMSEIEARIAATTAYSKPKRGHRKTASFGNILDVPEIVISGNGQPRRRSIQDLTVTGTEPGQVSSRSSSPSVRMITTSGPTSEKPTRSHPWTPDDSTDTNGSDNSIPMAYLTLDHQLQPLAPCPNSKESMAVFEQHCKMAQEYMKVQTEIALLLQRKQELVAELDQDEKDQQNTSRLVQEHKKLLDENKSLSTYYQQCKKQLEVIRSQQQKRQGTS
The experiment in a line: Inhibition of TAK1 Lys2 labeling site harbouring DLKPPNLLLVAGGTVLK in human Huh-7 cells at 1 uM by KiNativ Profiling analysis relative to control. It counts as cell-based.

In experiment [9] the test system is Epidermal growth factor receptor (Homo sapiens), P00533 [UNDEFINED MUTATION]. The experiment in a line: Inhibition of EGFR E746-A750del mutant (unknown origin) at 1 uM by Ambit Kinomescan binding assay relative to control.
For experiment [10], the system named is Epidermal growth factor receptor (Homo sapiens), P00533 [L858R,T790M]. The experiment in a line: Inhibition of EGFR L858R/T790M mutant (unknown origin) at 1 uM by Ambit Kinomescan binding assay relative to control.
Experiment [11] addresses Serine/threonine-protein kinase Nek4 (Homo sapiens) (UniProt P51957). The experiment is described as follows: Inhibition of NEK4 Lys2 labeling site in human A-375 cells at 5 uM by KiNativ Profiling analysis relative to control. It counts as cell-based.
The target in experiment [12] is DNA-PK/Ku70/Ku85 (Homo sapiens) (UniProt P78527+P12956+P13010). The experiment in a line: Inhibition of DNAPK ATP labeling site harbouring GHDEREHPFLVKGGEDLR in human A-375 cells at 0.05 uM by KiNativ Profiling analysis relative to control. The experiment is classed as cell-based.
Experiment [13] deals with Ephrin type-B receptor 6 (Homo sapiens) (UniProt O15197). The experiment in a line: Inhibition of EPHB6 (unknown origin) at 1 uM by Ambit Kinomescan binding assay relative to control; values are per cent of control.
Experiment [14] deals with Insulin receptor-related protein (Homo sapiens) (UniProt P14616). The experiment in a line: Inhibition of INSRR (unknown origin) at 1 uM by Ambit Kinomescan binding assay relative to control; values are per cent of control.
Experiment [15] deals with Tyrosine-protein kinase ABL1 (Homo sapiens), P00519 [Q252H]. The experiment is described as follows: Inhibition of phosphorylated ABL1 Q252H mutant (unknown origin) at 1 uM by Ambit Kinomescan binding assay relative to control; values are per cent of control.
For experiment [16], the target named is Serine/threonine-protein kinase 10 (Homo sapiens) (UniProt O94804). The experiment in a line: Inhibition of LOK Lys1 labeling site in human A-375 cells at 5 uM by KiNativ Profiling analysis relative to control. The experiment is classed as cell-based.
The target of experiment [17] is Focal adhesion kinase 1 (Homo sapiens) (UniProt Q05397). The experiment is described as follows: Inhibition of FAK K1 labeling site in human Huh-7 cells at 10 uM by KiNativ Profiling analysis relative to control. It counts as cell-based.
Experiment [18] deals with Calcium/calmodulin-dependent protein kinase type II subunit delta (Homo sapiens) (UniProt Q13557). The experiment in a line: Inhibition of CAMK2d K1 labeling site harbouring IPTGQEYAAKIINTKK in human Huh-7 cells at 1 uM by KiNativ Profiling analysis relative to control. It counts as cell-based.
Experiment [19] concerns the target Cyclin-dependent kinase 5 (Homo sapiens) (UniProt Q00535). The experiment in a line: Inhibition of CDK5 K2 labeling site harbouring DLKPQNLLINR in human Huh-7 cells at 1 uM by KiNativ Profiling analysis relative to control. The experiment is classed as cell-based.
The target of experiment [20] is Cyclin-dependent kinase 14 (Homo sapiens) (UniProt O94921). The experiment is described as follows: Inhibition of PFTAIRE1 Lys1 labeling site in human A-375 cells at 0.05 uM by KiNativ Profiling analysis relative to control.
Sequence of Cyclin-dependent kinase 14 (Homo sapiens) (O94921 whole entry, looked up): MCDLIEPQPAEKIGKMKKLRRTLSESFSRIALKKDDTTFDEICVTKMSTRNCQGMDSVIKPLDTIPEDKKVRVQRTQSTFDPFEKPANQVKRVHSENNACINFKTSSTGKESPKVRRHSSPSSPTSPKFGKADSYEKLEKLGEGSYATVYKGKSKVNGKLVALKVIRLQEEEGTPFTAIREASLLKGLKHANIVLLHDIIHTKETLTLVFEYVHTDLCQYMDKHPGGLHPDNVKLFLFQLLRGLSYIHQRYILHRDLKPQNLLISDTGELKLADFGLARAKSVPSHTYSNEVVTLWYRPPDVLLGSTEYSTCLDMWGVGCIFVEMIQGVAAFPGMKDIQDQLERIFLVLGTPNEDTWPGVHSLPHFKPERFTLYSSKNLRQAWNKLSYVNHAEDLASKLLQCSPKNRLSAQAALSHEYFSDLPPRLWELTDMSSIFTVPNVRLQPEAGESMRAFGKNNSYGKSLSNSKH

Sequence of Calcium/calmodulin-dependent protein kinase type II subunit delta (Homo sapiens) (Q13557 whole entry): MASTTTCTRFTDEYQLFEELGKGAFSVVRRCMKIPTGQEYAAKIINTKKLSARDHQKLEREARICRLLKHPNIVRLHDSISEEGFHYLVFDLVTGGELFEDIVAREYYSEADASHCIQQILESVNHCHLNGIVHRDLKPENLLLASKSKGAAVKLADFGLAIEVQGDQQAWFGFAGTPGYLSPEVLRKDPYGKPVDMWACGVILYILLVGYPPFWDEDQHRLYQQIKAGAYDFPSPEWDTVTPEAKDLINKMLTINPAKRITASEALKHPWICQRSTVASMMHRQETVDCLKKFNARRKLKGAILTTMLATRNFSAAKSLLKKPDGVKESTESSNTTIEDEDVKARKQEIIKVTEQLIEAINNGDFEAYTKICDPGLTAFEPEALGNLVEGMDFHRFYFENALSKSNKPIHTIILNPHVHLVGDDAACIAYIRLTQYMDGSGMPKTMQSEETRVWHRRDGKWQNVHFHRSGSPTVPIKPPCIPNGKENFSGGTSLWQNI
Sequence of Phosphatidylinositol 4,5-bisphosphate 3-kinase catalytic subunit beta isoform (Homo sapiens) (P42338 whole entry, looked up, canonical isoform): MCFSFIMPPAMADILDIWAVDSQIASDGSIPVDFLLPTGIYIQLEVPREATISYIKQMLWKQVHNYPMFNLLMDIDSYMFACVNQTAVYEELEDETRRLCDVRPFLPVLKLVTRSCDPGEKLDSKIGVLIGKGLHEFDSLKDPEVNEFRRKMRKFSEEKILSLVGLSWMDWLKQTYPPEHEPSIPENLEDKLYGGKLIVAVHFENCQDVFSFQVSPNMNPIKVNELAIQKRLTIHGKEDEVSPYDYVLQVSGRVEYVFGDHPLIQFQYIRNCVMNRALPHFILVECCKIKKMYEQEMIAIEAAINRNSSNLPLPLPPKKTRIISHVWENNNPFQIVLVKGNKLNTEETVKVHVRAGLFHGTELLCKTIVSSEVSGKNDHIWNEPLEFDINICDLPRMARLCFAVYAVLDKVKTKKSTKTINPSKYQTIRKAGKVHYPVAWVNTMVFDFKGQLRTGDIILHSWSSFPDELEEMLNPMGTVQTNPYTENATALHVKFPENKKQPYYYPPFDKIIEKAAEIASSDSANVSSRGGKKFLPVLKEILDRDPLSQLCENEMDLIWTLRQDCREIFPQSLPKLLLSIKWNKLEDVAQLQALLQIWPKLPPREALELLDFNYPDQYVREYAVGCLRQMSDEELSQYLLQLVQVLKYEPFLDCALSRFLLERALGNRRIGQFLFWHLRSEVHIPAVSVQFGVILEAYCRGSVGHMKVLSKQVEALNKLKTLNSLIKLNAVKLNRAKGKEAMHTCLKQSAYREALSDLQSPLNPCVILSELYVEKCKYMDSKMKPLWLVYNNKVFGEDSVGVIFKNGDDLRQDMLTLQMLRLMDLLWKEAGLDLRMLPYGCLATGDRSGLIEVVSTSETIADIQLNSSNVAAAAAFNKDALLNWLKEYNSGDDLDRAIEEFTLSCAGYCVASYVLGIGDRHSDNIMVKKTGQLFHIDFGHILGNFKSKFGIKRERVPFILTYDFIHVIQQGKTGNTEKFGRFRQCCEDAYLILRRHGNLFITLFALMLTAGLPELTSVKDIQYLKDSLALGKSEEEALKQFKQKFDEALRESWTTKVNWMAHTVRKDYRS
Sequence of Epidermal growth factor receptor (Homo sapiens), P00533 [L858R,T790M] (P00533 whole entry T790M/L858R, looked up): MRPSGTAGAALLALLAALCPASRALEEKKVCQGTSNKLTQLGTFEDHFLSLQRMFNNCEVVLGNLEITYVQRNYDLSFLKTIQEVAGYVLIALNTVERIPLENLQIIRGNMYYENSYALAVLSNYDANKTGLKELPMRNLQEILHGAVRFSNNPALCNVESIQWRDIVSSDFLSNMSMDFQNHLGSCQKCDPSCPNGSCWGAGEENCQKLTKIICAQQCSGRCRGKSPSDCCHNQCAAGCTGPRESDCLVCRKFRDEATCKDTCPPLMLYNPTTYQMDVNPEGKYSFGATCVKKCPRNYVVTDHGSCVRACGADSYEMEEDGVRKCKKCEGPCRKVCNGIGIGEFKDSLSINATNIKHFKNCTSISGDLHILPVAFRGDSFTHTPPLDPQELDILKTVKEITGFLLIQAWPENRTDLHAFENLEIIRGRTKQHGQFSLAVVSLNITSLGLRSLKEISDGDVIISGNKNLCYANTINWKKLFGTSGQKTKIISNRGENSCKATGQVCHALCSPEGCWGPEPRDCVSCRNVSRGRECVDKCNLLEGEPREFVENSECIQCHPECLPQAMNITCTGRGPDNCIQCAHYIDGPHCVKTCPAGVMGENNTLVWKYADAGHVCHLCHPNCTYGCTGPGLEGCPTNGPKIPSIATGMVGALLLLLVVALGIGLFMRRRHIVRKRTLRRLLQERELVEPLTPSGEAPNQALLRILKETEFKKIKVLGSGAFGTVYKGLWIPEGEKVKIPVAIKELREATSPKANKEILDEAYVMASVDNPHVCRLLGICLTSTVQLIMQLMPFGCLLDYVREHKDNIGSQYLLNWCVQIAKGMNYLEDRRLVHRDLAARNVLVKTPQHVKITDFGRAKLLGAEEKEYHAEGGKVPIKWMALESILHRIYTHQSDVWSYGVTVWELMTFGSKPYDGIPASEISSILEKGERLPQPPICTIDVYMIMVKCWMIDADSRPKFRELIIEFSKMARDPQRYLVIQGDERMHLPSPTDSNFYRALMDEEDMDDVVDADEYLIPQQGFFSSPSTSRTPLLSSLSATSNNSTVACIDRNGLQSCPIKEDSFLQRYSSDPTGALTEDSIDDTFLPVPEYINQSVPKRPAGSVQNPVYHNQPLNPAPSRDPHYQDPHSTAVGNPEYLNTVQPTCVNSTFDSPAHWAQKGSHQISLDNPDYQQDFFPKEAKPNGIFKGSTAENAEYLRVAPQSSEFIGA
Sequence of Ephrin type-B receptor 6 (Homo sapiens) (O15197 whole entry): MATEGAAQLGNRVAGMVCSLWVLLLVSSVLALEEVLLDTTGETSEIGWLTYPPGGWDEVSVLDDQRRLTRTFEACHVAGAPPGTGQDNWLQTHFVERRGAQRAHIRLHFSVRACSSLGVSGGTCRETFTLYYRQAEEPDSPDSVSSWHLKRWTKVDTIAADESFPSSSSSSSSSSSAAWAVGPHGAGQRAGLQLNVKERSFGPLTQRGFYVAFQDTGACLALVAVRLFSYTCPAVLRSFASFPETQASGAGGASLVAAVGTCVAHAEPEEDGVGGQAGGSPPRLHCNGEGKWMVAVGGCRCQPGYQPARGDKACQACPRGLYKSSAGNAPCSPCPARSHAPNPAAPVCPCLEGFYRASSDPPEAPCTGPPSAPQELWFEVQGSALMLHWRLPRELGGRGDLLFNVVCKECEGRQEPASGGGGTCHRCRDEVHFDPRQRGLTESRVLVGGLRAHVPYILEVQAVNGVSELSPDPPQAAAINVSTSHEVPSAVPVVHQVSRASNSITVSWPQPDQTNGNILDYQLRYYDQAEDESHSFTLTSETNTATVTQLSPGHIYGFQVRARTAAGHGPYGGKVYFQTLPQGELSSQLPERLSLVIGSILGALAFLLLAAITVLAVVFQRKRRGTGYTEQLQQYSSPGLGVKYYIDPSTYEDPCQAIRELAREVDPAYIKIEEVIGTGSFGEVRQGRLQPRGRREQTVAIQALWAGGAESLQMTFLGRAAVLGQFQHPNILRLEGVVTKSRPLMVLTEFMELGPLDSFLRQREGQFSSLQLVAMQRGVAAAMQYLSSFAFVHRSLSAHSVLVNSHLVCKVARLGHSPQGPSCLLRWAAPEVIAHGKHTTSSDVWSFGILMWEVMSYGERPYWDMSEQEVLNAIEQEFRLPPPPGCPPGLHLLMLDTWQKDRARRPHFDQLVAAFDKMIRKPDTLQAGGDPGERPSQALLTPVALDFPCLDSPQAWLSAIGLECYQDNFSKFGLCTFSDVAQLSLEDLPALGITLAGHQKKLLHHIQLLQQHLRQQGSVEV
Sequence of Cyclin-dependent kinase 11B (Homo sapiens) (P21127 whole entry): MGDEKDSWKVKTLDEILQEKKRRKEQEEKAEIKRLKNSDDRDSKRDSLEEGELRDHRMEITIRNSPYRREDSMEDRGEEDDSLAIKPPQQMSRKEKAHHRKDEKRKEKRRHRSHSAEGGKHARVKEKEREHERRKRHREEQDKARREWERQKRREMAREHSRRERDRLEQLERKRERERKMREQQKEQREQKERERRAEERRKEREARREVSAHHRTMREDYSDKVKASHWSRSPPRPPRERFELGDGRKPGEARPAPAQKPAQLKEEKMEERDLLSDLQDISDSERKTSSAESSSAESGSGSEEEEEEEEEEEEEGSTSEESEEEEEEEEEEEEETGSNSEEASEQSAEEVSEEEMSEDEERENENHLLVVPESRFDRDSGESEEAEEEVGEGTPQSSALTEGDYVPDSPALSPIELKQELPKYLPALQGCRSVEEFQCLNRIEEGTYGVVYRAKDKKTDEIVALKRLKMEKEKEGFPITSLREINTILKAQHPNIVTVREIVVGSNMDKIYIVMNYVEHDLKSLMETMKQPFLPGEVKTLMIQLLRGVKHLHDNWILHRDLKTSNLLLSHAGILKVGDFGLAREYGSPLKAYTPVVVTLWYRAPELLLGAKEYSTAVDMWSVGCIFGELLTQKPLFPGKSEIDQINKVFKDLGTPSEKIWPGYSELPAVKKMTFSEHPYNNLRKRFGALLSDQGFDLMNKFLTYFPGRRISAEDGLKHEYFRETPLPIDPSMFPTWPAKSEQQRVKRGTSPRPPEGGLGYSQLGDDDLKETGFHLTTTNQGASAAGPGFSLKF

Take `CNc1cc(Oc2cc(C(=O)Nc3cc(N4CCN(C)CC4)cc(C(F)(F)F)c3)ccc2C)ncn1`: the inhibition in [1] is 15.4%; in [2], -3.2%; in experiment [4], 0.6%; in [5] it was -1.3%; in experiment [6], 31.6%; in [7], 25.8%. For the same molecule, in experiment [8], the inhibition was 2.5%. Moreover, the inhibition at 1 µM in experiment [3] turned out to be 10.4%.
With `CCN1CCN(Cc2ccc(NC(=O)c3ccc(C)c(/C=C/c4cnc5[nH]ccc5c4OC)c3)cc2C(F)(F)F)CC1`, the inhibition in experiment [9] turned out to be 0.7%; in [10] it was 100%; in experiment [11] it was 50.4%; in [12], 21.3%. The residual activity came out at 2.8% in [13] and 100% in [14]. This molecule also displayed a percent of control in [15] of 1.2%.
Take `CCN1CCN(Cc2ccc(NC(=O)c3ccc(C)c(Oc4ccnc5[nH]ccc45)c3)cc2C(F)(F)F)CC1`: the inhibition was 82.3% in experiment [16]; 13% in experiment [17]; 4.4% in experiment [18]; -7.6% in experiment [19]; 8.3% in experiment [20].

The term inhibition denotes the change of the read-out against control, counted positive when it falls. As a reminder, the residual activity is the activity still measured, relative to the control. Read a low residual activity as little activity left.
